According to article PMC9502776, “Assessment of the Effects of Chitosan, Chitooligosaccharides and Their Derivatives on Lemna minor” (Molecules, 2022):
Values after ≈ are worked out from the molar mass of the structure shown. Counter-ions that a name gives are not always drawn.

How the values were obtained:
[1] = system: Lemna minor; test: Lemna minor growth inhibition assay (OECD Test No. 221); type: in vivo; settings: for aquatic toxicity category according to U.S. EPA: based on the calculated EC50 values against Lemna minor
Description: Four types of polymers were tested, namely low- (ChiS), medium- (ChiM) and high- (ChiL) molecular-weight chitosan and chitosan with a degree of deacetylation of approximately 50% (Chi50). The chitosan samples were tested in three concentrations (50 mg/L, 500 mg/L and 5000 mg/L) and were obtained by dissolving the polymers in 0.3% acetic acid, followed by dilution with culture medium in a 1:2 ratio.
Four types of chitooligosaccharides were tested: D-glucosamine hydrochloride (G), N-acetyl-D-glucosamine (NAG or A), chitobiose dihydrochloride (2G), and carboxymethyl chitosan (CMChi). Three chitooligosaccharides (G, NAG, 2G) were tested in three concentrations: 5 mg/L, 50 mg/L and 250 mg/L, being dissolved directly into L. minor culture medium. CMChi was tested in four concentrations (50 mg/L, 250 mg/L, 500 mg/L and 5000 mg/L) and the solutions were prepared by dissolving the polymer directly in L. minor culture medium.
Lemna minor, the common duckweed, was used as a test organism for the assessment of growth response of the tested chitosan samples and chitooligosaccharides through a growth inhibition assay. Standard conditions as described in OECD guideline were maintained during both L. minor culture and growth inhibition assay.
The effects of the chitosan samples and the chitooligosaccharides were tested using a number of 10 fronds per test vessel, with an exposure period of 7 days. In the same conditions, two controls were tested: a negative control (C−), represented by culture medium, and a positive control (C+), represented by 0.5% zinc chloride. All samples and controls were tested in triplicate.
The endpoints of the growth inhibition test were represented by number of fronds, which was used for the plotting of dose–response curves and the calculation of half maximal effective concentration (EC50). The tested samples were classified into aquatic ecotoxicity categories according to U.S. EPA [47] based on the calculated EC50 values: very highly toxic (<0.1 mg/L), highly toxic (>0.1–1 mg/L), moderately toxic (>1–10 mg/L), slightly toxic (>10–100 mg/L) and practically non-toxic (>100 mg/L).
PAST software was used for the statistical analysis of data, with Quest Graph™ EC50 Calculator [65] being used for the calculation of EC50 values. The Shapiro–Wilk W test was used for assessing the normality of the data, with the distribution analysis being followed by an ANOVA analysis. The normally distributed data were analyzed with parametric tests, the homogeneity of variance among treatments was determined through Levene’s test, with Tuckey’s post hoc test being used for the analysis of variances. The non-normally distributed data were analyzed with the Kruskal–Wallis test, variances being further analyzed using Dunn’s post hoc test. The Pearson linear r correlation test was used for all correlation analysis. The differences were considered significant for p values < 0.05.

[2] = system: Lemna trisulca; parameters: method as in PMID 17074410; settings: ref [48], cited from earlier work
[3] = system: Lemna gibba; parameters: method as in PMID 16666961; settings: D-glucosamine 50 mM, ref [49]; cited from earlier work
[4] = number of fronds, exposure period of 7 days

Row | SMILES | EC50 against Lemna minor [1, 4] [mg/L] | aquatic toxicity category according to U.S. EPA [1] | further results
1 | Cl.N[C@H]1[C@H](O[C@H]2[C@H](O)[C@@H](N)C(O)O[C@@H]2CO)O[C@H](CO)[C@@H](O)[C@@H]1O (some centres unmarked) [2G, chitobiose dihydrochloride] | 266.36 | – | –
2 | N[C@H]1C(O)O[C@H](CO)[C@@H](O)[C@@H]1O (stereo partly drawn) [D, D-glucosamine] | – | – | level of zeaxanthin and antheraxanthin, times higher than the control ([2]; Lemna trisulca): approximately 30 times; inhibition of violaxanthin synthesis from zeaxanthin and antheraxanthin ([2]; even at a concentration of 0.01%): induced the inhibition; inhibition of the respiration rate [3]: 30%
3 | CC(=O)N[C@@H]1[C@@H](O)[C@H](O)[C@@H](CO)O[C@@H]1O [A, N-acetyl-D-glucosamine] | 678.22 (≈ 3.07 mM) | practically non-toxic (practically non-toxic (>100 mg/L)) | –
4 | N[C@H]1C(O)O[C@H](CO)[C@@H](O)[C@@H]1O (stereo partly drawn) [G, D-glucosamine hydrochloride] | – | slightly toxic (slightly toxic (>10–100 mg/L)) | EC50 ([1]; Lemna minor, 168 h, number of fronds, exposure period of 7 days, read-out: EC50 against Lemna minor): 11.6 mg/L
